# From patent US12077503B2, “Substituted cyclic amides and their use as herbicides” (FMC CORPORATION, priority 2015, dated 2024)
# Tests used:
# Assay type in all cases: in vivo
# Kochia (Kochia scoparia) [1] = assay: Test A preemergence; conditions: Bassia scoparia, pre-emergence, 240 h; for pest or weed control at 125 g/ha: 125 g ai/ha, Preemergence, visual injury rating after approximately 10 d, read-out: Kochia plant response rating (0 to 100 scale, 0 is no effect, 100 is complete control); for pest or weed control at 500 g/ha: 500 g ai/ha, preemergence, visual injury rating about 10 d after treatment, 0 to 100 scale (0 no effect, 100 complete control), read-out: Kochia plant response rating
# Outline: (§1)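 Each rating is a visual injury score from 0 to 100 given about 10 d after treatment, judged against untreated controls kept alongside in the greenhouse. In loam soil–sand blend, seeds got a preemergence directed soil spray, while postemergence plants were 2 to 10 cm tall at spraying.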
# [2] = tested on: barnyardgrass (Echinochloa crus-galli); assay: Test A preemergence; conditions: Echinochloa crus-galli, pre-emergence, 240 h; for pest or weed control at 125 g/ha: 125 g ai/ha, Preemergence, visual injury rating after approximately 10 d, read-out: Barnyardgrass plant response rating (0 to 100 scale, 0 is no effect, 100 is complete control); for pest or weed control at 500 g/ha: 500 g ai/ha, preemergence, visual injury rating about 10 d after treatment, 0 to 100 scale (0 no effect, 100 complete control), read-out: Barnyardgrass plant response rating
# Outline: as §1
# [3] = tested on: giant foxtail (Setaria faberii); assay: Test A preemergence; conditions: Setaria faberi, pre-emergence, 240 h; for pest or weed control at 125 g/ha: 125 g ai/ha, Preemergence, visual injury rating after approximately 10 d, read-out: Foxtail, Giant plant response rating (0 to 100 scale, 0 is no effect, 100 is complete control); for pest or weed control at 500 g/ha: 500 g ai/ha, preemergence, visual injury rating about 10 d after treatment, 0 to 100 scale (0 no effect, 100 complete control), read-out: Foxtail, Giant plant response rating
# Outline: as §1
# [4] = tested on: pigweed (Amaranthus retroflexus); assay: Test A preemergence; conditions: Amaranthus retroflexus, pre-emergence, 240 h; for pest or weed control at 125 g/ha: 125 g ai/ha, Preemergence, visual injury rating after approximately 10 d, read-out: Pigweed plant response rating (0 to 100 scale, 0 is no effect, 100 is complete control); for pest or weed control at 500 g/ha: 500 g ai/ha, preemergence, visual injury rating about 10 d after treatment, 0 to 100 scale (0 no effect, 100 complete control), read-out: Pigweed plant response rating
# [5] = tested on: ragweed (common ragweed, Ambrosia elatior); assay: Test A preemergence; conditions: Ambrosia artemisiifolia, pre-emergence, 240 h; for pest or weed control at 500 g/ha: 500 g ai/ha, preemergence, visual injury rating about 10 d after treatment, 0 to 100 scale (0 no effect, 100 complete control), read-out: Ragweed plant response rating; for pest or weed control at 125 g/ha: 125 g ai/ha, Preemergence, visual injury rating after approximately 10 d, read-out: Ragweed plant response rating (0 to 100 scale, 0 is no effect, 100 is complete control)
# Outline: as §1
# [6] = tested on: ryegrass, Italian (Italian ryegrass, Lolium multiflorum); assay: Test A preemergence; conditions: Lolium multiflorum, pre-emergence, 240 h; for pest or weed control at 125 g/ha: 125 g ai/ha, Preemergence, visual injury rating after approximately 10 d, read-out: Ryegrass, Italian plant response rating (0 to 100 scale, 0 is no effect, 100 is complete control); for pest or weed control at 500 g/ha: 500 g ai/ha, preemergence, visual injury rating about 10 d after treatment, 0 to 100 scale (0 no effect, 100 complete control), read-out: Ryegrass, Italian plant response rating
# Outline: as §1
# [7] = tested on: Galium (catchweed bedstraw, Galium aparine); assay: Test A postemergence; conditions: Galium, post-emergence, 240 h, 125 g ai/ha, Postemergence; visual injury after approximately 10 d; 0 to 100 scale where 0 is no effect and 100 is complete control; read-out: Plant response rating, Galium
# Outline: as §1
# Kochia (Kochia scoparia) [8] = assay: Test A postemergence; conditions: Bassia scoparia, post-emergence, 240 h, 125 g ai/ha, Postemergence; visual injury after approximately 10 d; 0 to 100 scale where 0 is no effect and 100 is complete control; read-out: Plant response rating, Kochia
# Outline: as §1
# [9] = tested on: blackgrass (Alopecurus myosuroides); assay: Test A postemergence; conditions: Alopecurus myosuroides, post-emergence, 240 h, 125 g ai/ha, Postemergence; visual injury after approximately 10 d; 0 to 100 scale where 0 is no effect and 100 is complete control; read-out: Plant response rating, Blackgrass
# Outline: as §1
# corn (Zea mays) = assay: Test A postemergence; conditions: Zea mays, post-emergence, 240 h, 125 g ai/ha, Postemergence; visual injury after approximately 10 d; 0 to 100 scale where 0 is no effect and 100 is complete control
# Outline: as §1
# [10] = tested on: giant foxtail (Setaria faberii); assay: Test A postemergence; conditions: Setaria faberi, post-emergence, 240 h, 125 g ai/ha, Postemergence; visual injury after approximately 10 d; 0 to 100 scale where 0 is no effect and 100 is complete control; read-out: Plant response rating, Foxtail, Giant
# Outline: as §1
# [11] = tested on: pigweed (Amaranthus retroflexus); assay: Test A postemergence; conditions: Amaranthus retroflexus, post-emergence, 240 h, 125 g ai/ha, Postemergence; visual injury after approximately 10 d; 0 to 100 scale where 0 is no effect and 100 is complete control; read-out: Plant response rating, Pigweed
# Outline: as §1
# [12] = tested on: ragweed (common ragweed, Ambrosia elatior); assay: Test A postemergence; conditions: Ambrosia artemisiifolia, post-emergence, 240 h, 125 g ai/ha, Postemergence; visual injury after approximately 10 d; 0 to 100 scale where 0 is no effect and 100 is complete control; read-out: Plant response rating, Ragweed
# Outline: as §1
# [13] = tested on: ryegrass, Italian (Italian ryegrass, Lolium multiflorum); assay: Test A postemergence; conditions: Lolium multiflorum, post-emergence, 240 h, 125 g ai/ha, Postemergence; visual injury after approximately 10 d; 0 to 100 scale where 0 is no effect and 100 is complete control; read-out: Plant response rating, Ryegrass, Italian
# Outline: as §1
# [14] = tested on: wheat (Triticum aestivum); assay: Test A postemergence; conditions: Triticum aestivum, post-emergence, 240 h, 125 g ai/ha, Postemergence; visual injury after approximately 10 d; 0 to 100 scale where 0 is no effect and 100 is complete control; read-out: Plant response rating, Wheat
# Outline: as §1
# [15] = tested on: barnyardgrass (Echinochloa crus-galli); assay: Test B flooded paddy test; conditions: Echinochloa crus-galli, Flood, 250 g ai/ha; scale of 0 to 100 where 0 is no effect and 100 is complete control; read-out: Barnyardgrass plant response rating
# Outline: (§2)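 Percent control, visually estimated after 13–15 d in the greenhouse on a 0–100 basis, compares treated pots with untreated ones; compound was put into paddy water 3 cm above the soil when plants had two leaves.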
# [16] = tested on: ducksalad (Heteranthera limosa); assay: Test B flooded paddy test; conditions: Heteranthera limosa, Flood, 250 g ai/ha; scale of 0 to 100 where 0 is no effect and 100 is complete control; read-out: Ducksalad plant response rating
# Outline: as §2
# rice (Oryra sativa) = assay: Test B flooded paddy test; conditions: Oryza sativa, Flood, 250 g ai/ha; scale of 0 to 100 where 0 is no effect and 100 is complete control; read-out: Rice plant response rating
# Outline: as §2
# [17] = tested on: sedge, umbrella (small-flower umbrella sedge, Cyperus difformis); assay: Test B flooded paddy test; conditions: Cyperus difformis, Flood, 250 g ai/ha; scale of 0 to 100 where 0 is no effect and 100 is complete control; read-out: Sedge, Umbrella plant response rating
# Outline: as §2
Structure (SMILES),pest or weed control at 125 g/ha (Kochia (Kochia scoparia) [1]),pest or weed control at 500 g/ha (Kochia (Kochia scoparia) [1]),pest or weed control at 125 g/ha [2],pest or weed control at 500 g/ha [2],pest or weed control at 125 g/ha [3],pest or weed control at 500 g/ha [3],pest or weed control at 125 g/ha [4],pest or weed control at 500 g/ha [4],pest or weed control at 500 g/ha [5],pest or weed control at 125 g/ha [6],pest or weed control at 500 g/ha [6],pest or weed control at 125 g/ha [7],pest or weed control at 125 g/ha (Kochia (Kochia scoparia) [8]),pest or weed control at 125 g/ha [9],"Corn plant response rating (crop injury, 0 = no effect, 100 = complete kill) at 125 g/ha (corn (Zea mays))",pest or weed control at 125 g/ha [10],pest or weed control at 125 g/ha [11],pest or weed control at 125 g/ha [12],pest or weed control at 125 g/ha [13],plant injury at 125 g/ha [14],further results
CSc1ccccc1NC(=O)[C@H]1C(=O)N(C)C[C@@H]1c1cc(F)cc(Cl)c1 [Compound 975],50%,90%,90%,100%,90%,90%,20%,90%,90%,30%,40%,50%,40%,50%,20%,90%,30%,0%,20%,20%,pest or weed control at 250 g/ha [15]: 40%; pest or weed control at 250 g/ha [16]: 90%; pest or weed control at 250 g/ha (rice (Oryra sativa)): 0%; pest or weed control at 250 g/ha [17]: 0%
COc1cc(OC)cc([C@H]2CN(C)C(=O)[C@@H]2C(=O)Nc2ccccc2SC)c1 [Compound 981],0%,90%,90%,100%,90%,100%,0%,0%,50%,0%,60%,0%,0%,0%,0%,70%,0%,0%,0%,0%,pest or weed control at 125 g/ha [5]: 0%; pest or weed control at 250 g/ha [15]: 0%; pest or weed control at 250 g/ha [16]: 0%; pest or weed control at 250 g/ha (rice (Oryra sativa)): 0%; pest or weed control at 250 g/ha [17]: 0%
Cc1c(F)cccc1NC(=O)[C@H]1C(=O)N(C)C[C@@H]1c1cc(F)cc(Cl)c1 [Compound 978],40%,90%,90%,90%,90%,90%,0%,50%,90%,60%,90%,50%,0%,60%,60%,90%,0%,0%,50%,70%,pest or weed control at 125 g/ha [5]: 90%; pest or weed control at 250 g/ha [15]: 65%; pest or weed control at 250 g/ha [16]: 100%; pest or weed control at 250 g/ha (rice (Oryra sativa)): 30%; pest or weed control at 250 g/ha [17]: 0%
